Reference: ChEMBL document CHEMBL5291721, “A preclinical secondary pharmacology resource illuminates target-adverse drug reaction associations of marketed drugs” (Nat Commun, 2023)

Experiments:
[1] = target: T1, Alpha-1A adrenergic receptor (Homo sapiens, UniProt P35348); assay type: functional, cell-based
T1 sequence (P35348 whole entry): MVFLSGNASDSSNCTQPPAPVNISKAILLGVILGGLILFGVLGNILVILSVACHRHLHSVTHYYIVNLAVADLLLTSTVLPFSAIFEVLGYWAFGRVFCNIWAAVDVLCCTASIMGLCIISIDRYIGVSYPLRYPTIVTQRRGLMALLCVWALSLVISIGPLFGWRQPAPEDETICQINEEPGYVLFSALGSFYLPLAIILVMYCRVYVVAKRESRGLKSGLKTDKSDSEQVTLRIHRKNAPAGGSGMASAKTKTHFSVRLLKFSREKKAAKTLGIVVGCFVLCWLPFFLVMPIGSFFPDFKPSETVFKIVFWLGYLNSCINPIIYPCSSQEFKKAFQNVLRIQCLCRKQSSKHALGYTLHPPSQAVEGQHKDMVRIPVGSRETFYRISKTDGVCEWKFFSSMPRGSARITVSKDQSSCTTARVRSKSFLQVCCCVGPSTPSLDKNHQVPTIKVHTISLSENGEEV

[2] = target: T2, 5-hydroxytryptamine receptor 1A (Homo sapiens, UniProt P08908); assay type: functional, cell-based
T2 sequence (P08908 whole entry): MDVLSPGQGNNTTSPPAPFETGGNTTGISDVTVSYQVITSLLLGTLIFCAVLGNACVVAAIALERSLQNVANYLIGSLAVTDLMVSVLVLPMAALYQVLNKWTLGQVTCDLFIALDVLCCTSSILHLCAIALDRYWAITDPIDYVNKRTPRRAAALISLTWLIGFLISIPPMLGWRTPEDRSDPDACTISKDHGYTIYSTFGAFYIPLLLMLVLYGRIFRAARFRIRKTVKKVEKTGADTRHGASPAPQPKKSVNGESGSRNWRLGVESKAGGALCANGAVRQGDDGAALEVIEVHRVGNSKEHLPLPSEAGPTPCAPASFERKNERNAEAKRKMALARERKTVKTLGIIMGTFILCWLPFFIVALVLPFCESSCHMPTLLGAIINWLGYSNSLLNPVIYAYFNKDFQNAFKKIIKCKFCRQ

[3] = target: T3, Prostaglandin G/H synthase 1 (Rattus norvegicus, UniProt Q63921); assay type: functional
T3 sequence (Q63921 whole entry): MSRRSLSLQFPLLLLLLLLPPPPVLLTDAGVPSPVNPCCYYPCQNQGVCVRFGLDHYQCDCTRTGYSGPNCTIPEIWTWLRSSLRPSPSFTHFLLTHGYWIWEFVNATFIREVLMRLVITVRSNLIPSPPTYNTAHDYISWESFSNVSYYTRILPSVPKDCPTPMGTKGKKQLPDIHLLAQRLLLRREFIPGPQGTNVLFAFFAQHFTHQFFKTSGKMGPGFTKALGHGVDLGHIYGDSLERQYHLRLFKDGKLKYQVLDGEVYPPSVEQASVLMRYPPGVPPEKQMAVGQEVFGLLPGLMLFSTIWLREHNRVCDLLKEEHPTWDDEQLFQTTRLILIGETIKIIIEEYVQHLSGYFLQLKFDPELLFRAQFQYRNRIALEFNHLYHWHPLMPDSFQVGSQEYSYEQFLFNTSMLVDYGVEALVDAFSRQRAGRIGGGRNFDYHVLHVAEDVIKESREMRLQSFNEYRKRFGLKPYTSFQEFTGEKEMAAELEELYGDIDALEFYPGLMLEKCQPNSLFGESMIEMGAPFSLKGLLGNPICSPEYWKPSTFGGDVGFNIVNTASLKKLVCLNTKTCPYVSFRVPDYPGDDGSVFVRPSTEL

[4] = target: T4, Equilibrative nucleoside transporter 1 (Homo sapiens, UniProt Q99808)
T4 sequence (Q99808 whole entry): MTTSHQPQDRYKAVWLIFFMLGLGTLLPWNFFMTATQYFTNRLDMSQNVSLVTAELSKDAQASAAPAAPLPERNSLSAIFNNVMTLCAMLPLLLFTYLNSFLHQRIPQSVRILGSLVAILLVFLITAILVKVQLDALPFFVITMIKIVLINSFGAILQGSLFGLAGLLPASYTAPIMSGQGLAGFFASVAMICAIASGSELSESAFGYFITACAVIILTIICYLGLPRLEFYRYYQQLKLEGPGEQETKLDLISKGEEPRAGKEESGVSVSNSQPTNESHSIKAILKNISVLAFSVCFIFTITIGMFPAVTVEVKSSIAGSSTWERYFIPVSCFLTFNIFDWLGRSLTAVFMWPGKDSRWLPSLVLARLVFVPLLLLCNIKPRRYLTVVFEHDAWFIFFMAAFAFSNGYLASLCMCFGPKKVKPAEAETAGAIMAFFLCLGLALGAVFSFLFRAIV

Mu-type opioid receptor = Mu-type opioid receptor (Homo sapiens, UniProt P35372)
Sequence of Mu-type opioid receptor (P35372 whole entry): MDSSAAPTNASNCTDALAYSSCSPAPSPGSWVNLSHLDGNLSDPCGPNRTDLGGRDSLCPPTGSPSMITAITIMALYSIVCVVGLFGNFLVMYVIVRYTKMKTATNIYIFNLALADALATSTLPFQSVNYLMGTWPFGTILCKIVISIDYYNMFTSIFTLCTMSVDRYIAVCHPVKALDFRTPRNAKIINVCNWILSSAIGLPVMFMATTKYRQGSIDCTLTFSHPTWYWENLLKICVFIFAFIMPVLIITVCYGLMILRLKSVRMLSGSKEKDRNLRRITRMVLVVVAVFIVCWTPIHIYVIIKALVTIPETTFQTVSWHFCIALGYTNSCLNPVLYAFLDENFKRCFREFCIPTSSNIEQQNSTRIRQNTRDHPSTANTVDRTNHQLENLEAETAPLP

D(3) dopamine receptor = D(3) dopamine receptor (Homo sapiens, UniProt P35462)
Sequence of D(3) dopamine receptor (P35462 whole entry): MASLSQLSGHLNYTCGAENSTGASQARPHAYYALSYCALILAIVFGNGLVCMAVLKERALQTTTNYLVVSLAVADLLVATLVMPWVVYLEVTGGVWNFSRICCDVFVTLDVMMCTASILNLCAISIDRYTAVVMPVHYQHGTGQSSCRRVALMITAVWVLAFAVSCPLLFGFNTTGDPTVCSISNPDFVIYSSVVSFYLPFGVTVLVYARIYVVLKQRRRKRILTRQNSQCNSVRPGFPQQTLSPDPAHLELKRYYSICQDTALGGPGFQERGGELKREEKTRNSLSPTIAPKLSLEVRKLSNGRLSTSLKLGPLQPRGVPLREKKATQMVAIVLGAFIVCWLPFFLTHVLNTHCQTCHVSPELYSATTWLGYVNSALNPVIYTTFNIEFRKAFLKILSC

[5] = target: Beta-2 adrenergic receptor (Homo sapiens, UniProt P07550)
Sequence of Beta-2 adrenergic receptor (P07550 whole entry): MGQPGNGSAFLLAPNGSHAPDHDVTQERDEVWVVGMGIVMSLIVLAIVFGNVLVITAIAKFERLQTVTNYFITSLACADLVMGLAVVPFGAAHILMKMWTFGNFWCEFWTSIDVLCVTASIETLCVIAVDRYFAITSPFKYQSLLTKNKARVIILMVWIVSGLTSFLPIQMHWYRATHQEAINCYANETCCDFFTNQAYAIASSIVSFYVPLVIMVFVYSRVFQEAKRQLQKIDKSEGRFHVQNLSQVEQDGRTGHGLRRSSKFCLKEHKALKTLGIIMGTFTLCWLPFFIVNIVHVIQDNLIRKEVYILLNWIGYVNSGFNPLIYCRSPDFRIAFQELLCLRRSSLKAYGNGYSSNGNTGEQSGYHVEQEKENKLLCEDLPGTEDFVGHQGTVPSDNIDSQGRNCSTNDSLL

[6] = target: Voltage-dependent L-type calcium channel subunit alpha-1C (Rattus norvegicus, UniProt P22002); assay type: functional
Sequence of Voltage-dependent L-type calcium channel subunit alpha-1C (P22002 whole entry): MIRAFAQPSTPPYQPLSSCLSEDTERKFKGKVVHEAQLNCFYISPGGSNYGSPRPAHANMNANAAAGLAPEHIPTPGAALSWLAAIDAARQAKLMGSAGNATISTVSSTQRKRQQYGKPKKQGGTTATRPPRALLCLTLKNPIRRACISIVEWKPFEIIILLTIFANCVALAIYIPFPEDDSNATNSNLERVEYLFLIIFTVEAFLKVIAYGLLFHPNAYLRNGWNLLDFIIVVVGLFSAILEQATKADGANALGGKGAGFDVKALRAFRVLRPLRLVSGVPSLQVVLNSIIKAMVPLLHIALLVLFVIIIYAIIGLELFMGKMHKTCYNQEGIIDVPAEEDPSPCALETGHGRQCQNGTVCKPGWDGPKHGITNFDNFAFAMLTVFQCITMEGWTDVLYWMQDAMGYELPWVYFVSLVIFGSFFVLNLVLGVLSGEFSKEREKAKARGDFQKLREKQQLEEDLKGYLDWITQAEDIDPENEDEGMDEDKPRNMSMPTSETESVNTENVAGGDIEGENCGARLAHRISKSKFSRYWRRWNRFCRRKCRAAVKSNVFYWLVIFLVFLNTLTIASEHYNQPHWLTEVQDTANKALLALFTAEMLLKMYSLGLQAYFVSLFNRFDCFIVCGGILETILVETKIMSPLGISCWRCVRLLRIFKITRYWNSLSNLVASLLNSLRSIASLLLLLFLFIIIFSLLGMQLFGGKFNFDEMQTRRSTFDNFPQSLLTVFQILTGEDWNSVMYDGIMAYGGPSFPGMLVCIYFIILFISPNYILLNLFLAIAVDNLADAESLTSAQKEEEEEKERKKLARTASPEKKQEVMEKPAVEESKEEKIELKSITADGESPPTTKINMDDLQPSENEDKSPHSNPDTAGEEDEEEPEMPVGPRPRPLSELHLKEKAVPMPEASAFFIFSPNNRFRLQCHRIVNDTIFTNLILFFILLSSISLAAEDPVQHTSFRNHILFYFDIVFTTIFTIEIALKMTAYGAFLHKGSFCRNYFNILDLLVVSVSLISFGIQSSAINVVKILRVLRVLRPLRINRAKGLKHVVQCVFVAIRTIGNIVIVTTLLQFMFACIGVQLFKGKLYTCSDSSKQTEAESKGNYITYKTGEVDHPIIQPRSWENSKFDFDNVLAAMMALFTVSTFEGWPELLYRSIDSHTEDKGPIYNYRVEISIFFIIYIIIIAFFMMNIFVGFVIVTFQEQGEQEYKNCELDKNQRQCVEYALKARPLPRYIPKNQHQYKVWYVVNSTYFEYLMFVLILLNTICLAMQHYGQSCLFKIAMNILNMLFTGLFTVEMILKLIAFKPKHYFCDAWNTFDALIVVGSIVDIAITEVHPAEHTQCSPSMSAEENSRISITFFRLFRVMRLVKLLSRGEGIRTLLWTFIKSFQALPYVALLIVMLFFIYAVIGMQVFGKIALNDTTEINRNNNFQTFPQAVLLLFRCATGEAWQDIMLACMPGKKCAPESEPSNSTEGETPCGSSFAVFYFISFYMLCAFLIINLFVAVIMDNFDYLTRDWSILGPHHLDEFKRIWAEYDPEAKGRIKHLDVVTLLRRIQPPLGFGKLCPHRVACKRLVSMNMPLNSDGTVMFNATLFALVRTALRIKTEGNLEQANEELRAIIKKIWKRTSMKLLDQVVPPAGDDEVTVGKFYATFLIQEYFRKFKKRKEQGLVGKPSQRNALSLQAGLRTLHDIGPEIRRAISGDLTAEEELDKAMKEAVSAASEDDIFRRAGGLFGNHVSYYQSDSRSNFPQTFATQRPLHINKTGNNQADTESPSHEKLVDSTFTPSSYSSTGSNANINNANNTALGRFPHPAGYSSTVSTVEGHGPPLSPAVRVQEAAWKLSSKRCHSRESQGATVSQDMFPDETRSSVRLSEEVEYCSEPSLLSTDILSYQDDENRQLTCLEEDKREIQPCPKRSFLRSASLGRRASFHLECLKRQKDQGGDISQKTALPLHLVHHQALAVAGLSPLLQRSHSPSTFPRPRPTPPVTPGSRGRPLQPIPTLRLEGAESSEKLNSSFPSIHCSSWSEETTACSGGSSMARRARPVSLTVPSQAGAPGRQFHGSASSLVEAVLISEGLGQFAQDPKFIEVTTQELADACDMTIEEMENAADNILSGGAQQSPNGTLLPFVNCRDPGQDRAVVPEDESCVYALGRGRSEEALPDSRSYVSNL

Glucocorticoid receptor = target: T5, Glucocorticoid receptor (Homo sapiens, UniProt P04150)
T5 sequence (P04150 whole entry): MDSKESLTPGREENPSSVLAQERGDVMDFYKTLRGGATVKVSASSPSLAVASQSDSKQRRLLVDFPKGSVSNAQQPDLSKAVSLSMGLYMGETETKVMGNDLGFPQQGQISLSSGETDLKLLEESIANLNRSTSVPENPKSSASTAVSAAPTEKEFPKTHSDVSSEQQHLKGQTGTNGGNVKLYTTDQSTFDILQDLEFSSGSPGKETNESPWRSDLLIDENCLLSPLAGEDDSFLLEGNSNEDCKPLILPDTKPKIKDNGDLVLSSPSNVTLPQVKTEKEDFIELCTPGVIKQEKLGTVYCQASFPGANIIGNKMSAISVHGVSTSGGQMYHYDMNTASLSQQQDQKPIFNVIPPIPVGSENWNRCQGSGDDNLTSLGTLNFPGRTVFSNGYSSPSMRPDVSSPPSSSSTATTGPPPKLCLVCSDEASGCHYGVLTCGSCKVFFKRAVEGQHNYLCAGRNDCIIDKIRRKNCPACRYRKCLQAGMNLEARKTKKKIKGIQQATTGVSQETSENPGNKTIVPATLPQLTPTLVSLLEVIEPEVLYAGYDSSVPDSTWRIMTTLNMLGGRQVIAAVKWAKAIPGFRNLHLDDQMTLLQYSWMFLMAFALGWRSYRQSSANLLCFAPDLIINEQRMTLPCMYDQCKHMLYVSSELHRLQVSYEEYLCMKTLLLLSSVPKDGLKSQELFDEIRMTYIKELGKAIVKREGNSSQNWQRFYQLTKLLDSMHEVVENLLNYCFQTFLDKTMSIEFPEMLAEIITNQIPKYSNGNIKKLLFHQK
Further: assay procedure not described here.

## COc1ccc(-n2nc(C(N)=O)c3c2C(=O)N(c2ccc(N4CCCCC4=O)cc2)CC3)cc1 [APIXABAN]
[1]
  AC50: > 30 µM
[2]
  AC50: > 30 µM
[3]
  AC50: > 30 µM
[4]
  AC50: 26 µM
Mu-type opioid receptor
  AC50: > 30 µM
D(3) dopamine receptor
  AC50: > 30 µM

## Nc1ccc(S(=O)(=O)Nc2ncccn2)cc1 [SULFADIAZINE]
[5]
  AC50: > 10 µM
[6]
  AC50: > 10 µM
[2]
  AC50: > 10 µM
[3]
  AC50: > 10 µM
[4]
  AC50: > 10 µM
Mu-type opioid receptor
  AC50: > 30 µM
D(3) dopamine receptor
  AC50: > 30 µM

## CC1NCCOC1c1ccccc1 (stereo not given) [PHENMETRAZINE]
[1]
  AC50: 14 µM
[5]
  AC50: > 10 µM
[6]
  AC50: > 10 µM
[2]
  AC50: > 10 µM
[3]
  AC50: > 30 µM
[4]
  AC50: > 30 µM
Mu-type opioid receptor
  AC50: > 30 µM
D(3) dopamine receptor
  AC50: > 30 µM

## CCC(NC(C)C)C(O)c1ccc(O)c(O)c1 (stereo not given) [ISOETHARINE]
[5]
  AC50: 5.43 µM
[6]
  AC50: > 30 µM
[2]
  AC50: > 30 µM
[3]
  AC50: 0.66 µM
[4]
  AC50: > 30 µM
Mu-type opioid receptor
  AC50: > 30 µM
D(3) dopamine receptor
  AC50: > 30 µM

## CCCCCCOC(=O)NC(=N)c1ccc(NCc2nc3cc(C(=O)N(CCC(=O)OCC)c4ccccn4)ccc3n2C)cc1 [DABIGATRAN ETEXILATE]
[1]
  AC50: > 30 µM
[2]
  AC50: > 30 µM
[3]
  AC50: > 30 µM
[4]
  AC50: > 30 µM
Mu-type opioid receptor
  AC50: > 30 µM
D(3) dopamine receptor
  AC50: > 30 µM

## COC(=O)[C@H]1[C@H]2C[C@@H]3c4[nH]c5ccccc5c4CCN3C[C@H]2C[C@@H](OC(=O)c2cc(OC)c(OC)c(OC)c2)[C@@H]1OC [DESERPIDINE]
[5]
  AC50: > 10 µM
[6]
  AC50: > 10 µM
[2]
  AC50: > 10 µM
[3]
  AC50: 34.3 µM
[4]
  AC50: > 10 µM
Mu-type opioid receptor
  AC50: 8.3 µM
D(3) dopamine receptor
  AC50: > 30 µM

## CC(=O)Oc1cccc2c1C(=O)c1c(OC(C)=O)cc(C(=O)O)cc1C2=O [DIACEREIN]
[1]
  AC50: 21 µM
[5]
  AC50: > 30 µM
[6]
  AC50: > 30 µM
[2]
  AC50: 18 µM
Glucocorticoid receptor
  AC50: > 30 µM
[3]
  AC50: 0.9 µM
[4]
  AC50: 4.8 µM
D(3) dopamine receptor
  AC50: > 30 µM

## Cc1ccc(S(=O)(=O)NC(=O)N[C@H]2[C@H]3CC[C@@](C)([C@H]2O)C3(C)C)cc1 [GLIBORNURIDE]
[1]
  AC50: > 30 µM
[5]
  AC50: > 30 µM
[6]
  AC50: > 30 µM
[2]
  AC50: > 30 µM
Glucocorticoid receptor
  AC50: > 30 µM
[3]
  AC50: > 30 µM
[4]
  AC50: > 30 µM
D(3) dopamine receptor
  AC50: > 30 µM

## CCN(CC)Cc1nccn1-c1ccc([N+](=O)[O-])cc1C(=O)c1ccccc1Cl [NIZOFENONE]
[1]
  AC50: > 30 µM
[5]
  AC50: > 30 µM
[6]
  AC50: > 30 µM
[2]
  AC50: > 30 µM
Glucocorticoid receptor
  AC50: > 30 µM
[3]
  AC50: > 30 µM
[4]
  AC50: > 30 µM
D(3) dopamine receptor
  AC50: > 30 µM
